Non-standard residues stand in square brackets, D forms with d. Residues, ends and D or L forms follow the SMILES beside them. pY = N[C@@H](Cc1ccc(OP(=O)(O)O)cc1)C(=O)O
Target: T1, Tyrosine-protein kinase ABL1 [131-238] (Human, UniProt P00519)
T1 construct: 131-238
T1 sequence (P00519 whole entry): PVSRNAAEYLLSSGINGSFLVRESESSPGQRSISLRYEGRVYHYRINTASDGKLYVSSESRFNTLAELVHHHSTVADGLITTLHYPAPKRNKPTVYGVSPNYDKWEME
Test: Fluorescence Polarization Assay
Conditions: pH 7.25
Method: SH2 domains were dialyzed into binding buffer (50 mM Hepes, pH 7.25, 150 mM NaCl, 0.01% Nonidet P-40, 5% glycerol) and a 30-μl volume serially diluted into pre-chilled 384-well low flange black flat bottom non-binding microplates (Corning) while on ice. 5 μl of 35 nM fluorescent peptide dissolved in binding buffer was added to each well (final concentration 5 nM), mixed 5 times by pipetting, and plates were incubated at 4 °C for 40 min. Fluorescence polarization experiments were performed with an Analyst AD (Molecular Devices, Sunnyvale, CA) spectrofluorimeter. Each well was excited using 485 nm light and emission was read at 530 nm. Fluorescence polarization was measured 1 mm from the bottom of each well with an integration time of 560 ms. All experiments were conducted in triplicate.

| Kd [µM] | SMILES |
| --- | --- |
| > 61.9 | C[C@@H](O)[C@H](NC(=O)[C@H](CC(=O)O)NC(=O)[C@H](CC(=O)O)NC(=O)[C@@H](N)CCC(=O)O)C(=O)N[C@@H](Cc1ccc(OP(=O)(O)O)cc1)C(=O)N[C@@H](CC(=O)O)C(=O)NCC(=O)N[C@@H](Cc1ccc(O)cc1)C(=O)N[C@@H](CCC(=O)O)C(=O)O [EDDTpYDGYE] (H-EDDT[pY]DGYE-OH) |
| 3.27 | CC(C)[C@H](NC(=O)[C@@H]1CCCN1C(=O)[C@H](CCC(=O)O)NC(=O)[C@@H](N)CO)C(=O)N[C@@H](Cc1ccc(OP(=O)(O)O)cc1)C(=O)N[C@@H](CCC(=O)O)C(=O)N[C@H](C(=O)N[C@H](C(=O)N[C@@H](CCC(=O)O)C(=O)O)[C@@H](C)O)[C@@H](C)O [SEPVpYETTE] (H-SEPV[pY]ETTE-OH) |
| 3.33 | CC[C@H](C)[C@H](NC(=O)[C@@H]1CCCN1C(=O)[C@H](CO)NC(=O)[C@@H](N)CO)C(=O)N[C@@H](Cc1ccc(OP(=O)(O)O)cc1)C(=O)N[C@@H](CCC(=O)O)C(=O)N[C@@H](CC(=O)O)C(=O)N[C@@H](C)C(=O)N[C@@H](C)C(=O)O [SSPIpYEDAA] (H-SSPI[pY]EDAA-OH) |

From BindingDB's records for doi:10.1074/jbc.M114.556480 (Yale University, 2014)
